Measurements from US5403824A, “Methods for the treatment of osteoporosis” (The Procter & Gamble Company, priority 1993, dated 1995).
Square brackets hold non-standard residues; d marks the D form. Peptide text beside a SMILES is read from it. dMet(O) = CS(=O)CC[C@@H](N)C(=O)O; Phe(ol) = N[C@H](CO)Cc1ccccc1

What was measured:
[1] = biological target: mu opioid receptor (Cavia porcellus, UniProt A0ACM8Q262); assay: inhibition of [3H]DAGO binding, method of Goldstein et al.; design: species or system guinea pig; conditions: radioligand [3H]DAGO
Sequence of mu opioid receptor (A0ACM8Q262 1-400): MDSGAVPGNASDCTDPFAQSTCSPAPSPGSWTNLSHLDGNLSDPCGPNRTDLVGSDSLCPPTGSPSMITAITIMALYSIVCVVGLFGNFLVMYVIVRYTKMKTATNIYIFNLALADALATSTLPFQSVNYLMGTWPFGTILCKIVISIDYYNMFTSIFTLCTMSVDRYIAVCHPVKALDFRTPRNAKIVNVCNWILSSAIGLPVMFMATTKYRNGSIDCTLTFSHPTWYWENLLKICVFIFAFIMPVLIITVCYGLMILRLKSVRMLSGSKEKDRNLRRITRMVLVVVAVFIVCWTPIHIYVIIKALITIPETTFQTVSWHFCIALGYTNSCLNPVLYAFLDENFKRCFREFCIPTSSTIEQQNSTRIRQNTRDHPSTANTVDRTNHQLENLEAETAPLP
Description: Affinity for mu opioid receptors can be measured by any of several art-recognized in vitro models. One such model is described by A. Goldstein et al., "Multiple Opioid Receptors: Ligand Selectivity Profiles and Binding Site Signatures", 36 […] 265-272 (1989), which is incorporated herein by reference. According to this model, a test compound is screened for its ability to inhibit binding of a mu-selective radiolabeled ligand ("mu-selective radiolabeled ligand" refers to a radiolabeled compound that is known to have selective affinity for mu opioid receptors) to mu opioid receptor binding sites. More specifically, this in vitro model compares test samples (comprising a mu-selective radiolabeled ligand ("hot ligand"); the non-radiolabeled equivalent to the "hot ligand" ("cold ligand"); test compound at varying concentrations in each test sample; and mu opiate receptor material) and a control sample (comprising hot ligand; cold ligand; and mu opiate receptor material).
Following the protocol set forth by Goldstein et al., the samples are assayed for relative radioactivity.
In assessing a compound's in vitro affinity for mu opioid receptors according the method described by Goldstein et al., the mu-selective radiolabeled ligand (i.e., "hot ligand") is preferrably [^3 H]Tyr-D-Ala-Gly-N-methyl-Phe-Gly(ol) ("[^3 ]DAGO" or "hot DAGO"). […]

[2] = test system: human subject with postmenopausal osteoporosis or low bone mass; assay: treatment of human subject with osteoporosis, vertebral density by dual-energy photon absorptiometry; format: in vivo; conditions: 30 mg intravenously daily (substitutes at comparable levels), 28 days active / 28 days calcium, two years
Procedure: A human subject weighing about 60 kg (132 lbs), suffering from postmenopausal osteoporosis, is treated by a method of this invention. Specifically, for two years, the enkephalin-degrading enzyme inhibitor DL-3-mercapto-2-benzylpropanoylglycine is administered orally, in a cyclical regimen, where each cycle consists of an active period of 28 days during which a tablet containing 160 mg of said inhibitor is administered each day, followed by a non-active period of 28 days during which the subject receives a daily supplement of calcium (1,000 mg/day), with repeat of cycle.
A human subject weighing about 60 kg (132 lbs), suffering from postmenopausal osteoporosis, is treated by a method of this invention. Specifically, for two years, the compound H-Tyr-D-Ala-Gly-Phe-D-Leu-OH ("DADLE") is administered to the subject, in a cyclical regimen, where each cycle consists of an active period of 28 days during which a solution containing 30 mg of DADLE is administered intravenously every day, followed by a non-active period of 28 days during which the patient receives a daily supplement of calcium (1,000 mg/day), with repeat of cycle.
(§1) A human subject weighing about 60 kg (132 lbs), suffering from postmenopausal osteoporosis, is treated by a method of this invention. Specifically, for two years, an enkephalin of the formula Tyr-D-Cys(S-t-butylthioether)-Gly-Phe-Leu-Thr(O-t-butylether) ("BUBUC") is administered to the subject, in a cyclical regimen, where each cycle consists of an active period of 28 days during which a solution containing 30 mg of BUBUC is intravenously administered each day, followed by a non-active period of 28 days during which the patient receives a daily supplement of calcium (1,000 mg/day), with repeat of cycle.
as §1, with “years, the” for “years, an”, “enkephalin secretagogue Tyr-Arg^1,” for “enkephalin of the formula Tyr-D-Cys(S-t-butylthioether)-Gly-Phe-Leu-Thr(O-t-butylether) ("BUBUC")”, “of Tyr-Arg” for “of BUBUC”, “the subject” for “the patient”, “cycle. […]” for “cycle.”
A human subject weighing about 60 kg (132 lbs), suffering from postmenopausal osteoporosis, is treated by a method of this invention. Specifically, each day for five years, the subject is administered 3 tablets, comprised as follows.
A human subject weighing about 60 kg (132 lbs) is evaluated approximately four years after spontaneous menopause, and is found to have low bone mass. The subject is then treated by a method of this invention to treat osteoporosis. Specifically, once each month for five years, the subject is administered, via intravenous injection, 5 ml of a solution comprised as follows.

[3] = test system: Rat osteoblast-like cells (ROS 17/2.8); assay: [3H]-thymidine incorporation, proliferation of osteoblast-like cells; format: cell-based; conditions: ROS 17/2.8, 18 hrs incubation, 2 hrs pulse
Description: Stimulation of osteoblast-like cell proliferation can be measured according to several art-recognized in vitro models. One such model is described in European Patent Publication No. 384,731, by Rodan et al, published Aug. 29, 1990, which is incorporated herein by reference. (Applicants have modified this method by reducing regent volumes to one-quarter those described and by utilizing Dulbecco's Modified eagle's Medium (DMEM).) In this model, proliferation (division) of, for example, rat osteoblast-like cells (rat osteosarcoma (ROS) cells, rat calvaria cells, etc.) is observed by measuring the amount of radiolabeled thymidine ([^3 H]thymidine) incorporated by these cells. ([^3 H]thymidine is "incorporated" by cellular DNA being synthesized as a result of cell proliferation.) The greater the level of [^3 H]thymidine measured, the greater the amount of proliferation of the osteoblast cells.
More specifically, a test sample (comprised of a test compound and osteoblast-like cells) and a control sample (comprised of only osteoblast-like cells) are pulsed with [^3 H]thymidine. The amount of [^3 H]thymidine incorporated by the cells is measured using a direct beta counter.
Rat osteoblast-like cells (ROS 17/2.8) are plated at 4×10^3 cells/well in a 96-well plate in Dulbecco's Modified eagle's Medium supplemented with 2% (v/v) Fetal Bovine Serum, and incubated for 6 hrs. Control (serum-free) medium and test medium (test sample and serum-free medium) are then added to the cells and this combination is incubated for 18 hrs. The cells are then pulsed with [^3 H]-thymidine (1 μCi/well) for 2 hrs. The medium is then removed, the cells are harvested onto glass fibre filters and the amount of [^3 H]-thymidine (counts per minute per well) incorporated into DNA is then determined using a direct beta counter. Values for control groups are then compared to values for treated groups.
(§2) The compound H-Tyr-D-Ala-Gly-Phe-D-Leu-OH ("DADLE") is screened to determine whether it stimulates proliferation of osteoblast-like cells. […] The medium is then removed, the cells are harvested onto glass fibre filters, and the amount of ^3 H-thymidine (counts per minute per well) incorporated into DNA is determined using a direct beta counter. […]
as §2, with “Tyr-D-Cys(S-t-butylthioether)-Gly-Phe-Leu-Thr(O-t-butylether) ("BUBUC")” for “H-Tyr-D-Ala-Gly-Phe-D-Leu-OH ("DADLE")”

Molecule	density of vertebrae / bone mass [2]	further results
CC(C)C[C@@H](NC(=O)[C@H](Cc1ccccc1)NC(=O)CNC(=O)[C@@H](C)NC(=O)[C@@H](N)Cc1ccc(O)cc1)C(=O)O [DADLE, H-Tyr-D-Ala-Gly-Phe-D-Leu-OH]	an increase in bone mass	in vitro mu opioid receptor affinity (IC50 ≤1000 times the IC50 of non-radiolabeled DAGO) [1]: significant in vitro mu opioid receptor affinity; density of vertebrae / bone mass ([2]; listed as H-Tyr-D-Ala-Gly-Phe-D-Leu): substantially similar results; [3H]-thymidine incorporation (proliferation) vs control [3]: significantly stimulated proliferation of the osteoblast-like cells
C[C@@H](NC(=O)[C@@H](N)Cc1ccc(O)cc1)C(=O)NCC(=O)N(C)[C@@H](Cc1ccccc1)C(=O)N[C@H](CO)CC[S+](C)[O-] (stereo partly drawn) [H-Tyr-D-Ala-Gly-N-methyl-Phe-Met(sulfoxide)(ol)]	substantially similar results	–
CC(C)C[C@H](NC(=O)[C@H](Cc1ccccc1)NC(=O)CNC(=O)[C@@H](C)NC(=O)[C@@H](N)Cc1ccc(O)cc1)C(N)=O [H-Tyr-D-Ala-Gly-Phe-Leu-NH2]	substantially similar results	–
CSCC[C@H](NC(=O)[C@H](Cc1ccccc1)NC(=O)CNC(=O)[C@@H](C)NC(=O)[C@@H](N)Cc1ccc(O)cc1)C(N)=O [H-Tyr-D-Ala-Gly-Phe-Met-NH2]	substantially similar results	–
CSCC[C@H](NC(=O)[C@H](Cc1ccccc1)NC(=O)[C@@H](C)NC(=O)[C@@H](N)Cc1ccc(O)cc1)C(N)=O [H-Tyr-D-Ala-Phe-Met-NH2] (H-Y[dA]FM-NH2)	substantially similar results	–
C[S+]([O-])CC[C@@H](NC(=O)[C@@H](N)Cc1ccc(O)cc1)C(=O)NCC(=O)N[C@H](CO)Cc1ccccc1 (stereo partly drawn) [H-Tyr-D-Met(O)-Gly-Phe(ol)] (H-Y[dMet(O)]G[Phe(ol)])	substantially similar results	–
CSCC[C@@H](NC(=O)[C@@H](N)Cc1ccc(O)cc1)C(=O)NCC(=O)N[C@@H](Cc1ccccc1)C(=O)N1CCC[C@H]1C(N)=O [H-Tyr-D-Met-Gly-Phe-Pro-NH2] (H-Y[dM]GFP-NH2)	substantially similar results	–
CC(C)C[C@H](NC(=O)[C@H](Cc1ccccc1)NC(=O)CNC(=O)[C@@H](COC(C)(C)C)NC(=O)[C@@H](N)Cc1ccc(O)cc1)C(=O)N[C@H](C(=O)O)[C@@H](C)OC(C)(C)C [H-Tyr-D-Ser(O-t-butylether)-Gly-Phe-Leu-Thr(O-t-butylether)]	substantially similar results	–
CC(C)C[C@H](NC(=O)[C@H](Cc1ccccc1)NC(=O)CNC(=O)[C@@H](COC(C)(C)C)NC(=O)[C@@H](N)Cc1ccc(O)cc1)C(=O)N[C@H](C(=O)O)[C@@H](C)O [H-Tyr-D-Ser(O-t-butylether)-Gly-Phe-Leu-Thr]	substantially similar results	–
H-(2,6-dimethyl-Try)-D-Ala-NH-phenylpropyl	substantially similar results	–
H-Tyr-D-Pen-Gly-Phe-Pen	substantially similar results	–
